Reference: patent publication US10821115B2, “Compounds that inhibit Mcl-1 protein” (priority 2017, dated 2020)
Where two headings read alike, the source gives them in different places.

Legend:
[1] = target: recombinant human Mcl-1 (residues 171-327) / Bim interaction (Homo sapiens (Human), UniProt Q07820); assay: biochemical; assay type: binding; settings: read-out: Mcl-1 HTRF IC50
[2] = system: human multiple myeloma cell line, OPM-2; assay: Cell viability assay (OPM-2 10 FBS), CellTiter-Glo; assay type: cell-based
Procedure, shortened: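 Serially diluted test compounds are incubated 16 h with cells (3000/well) in RPMI 1640 supplemented with 10% FBS. Viability is then measured by luminescence and IC50 calculated by 4-parameter logistic fit.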

[3] = 0.1 nM Mcl-1(171-327), 0.05 nM biotin-Bim (51-76)
[4] = Homo sapiens, OPM-2, 16 h, read-out: OPM-2 10% FBS IC50 IP, OPM-2 cells, 10% FBS, 16 h incubation
[5] = TR-FRET, Mcl-1(171-327) / biotin-Bim (51-76)
[6] = read-out: OPM-2 10% FBS IC50 IP, OPM-2 cells, 10% FBS, 16 h, CellTiter-Glo
[7] = Homo sapiens, OPM-2, 16 h, read-out: OPM-2 10% FBS IC50 IP, OPM-2 cells, 10% FBS, 16 h, CellTiter-Glo

Chain of recombinant human Mcl-1 (residues 171-327) / Bim interaction (Q07820 171-327): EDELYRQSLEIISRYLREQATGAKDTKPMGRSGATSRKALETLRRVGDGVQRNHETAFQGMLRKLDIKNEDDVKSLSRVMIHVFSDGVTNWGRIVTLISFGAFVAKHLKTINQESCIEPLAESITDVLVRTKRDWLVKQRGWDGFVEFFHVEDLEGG

Row | Compound | IC50 [1, 3] | IC50 [2, 4] | IC50 [1, 5] | IC50 [2, 6] | IC50 [2, 7]
1 | CO[C@]1(CN2CCN(C)CC2)/C=C/C[C@H](C)[C@@H](C)S(=O)(=O)NC(=O)c2ccc3c(c2)N(C[C@@H]2CC[C@H]21)C[C@@]1(CCCc2cc(Cl)ccc21)CO3 [Example 62] | 0.115 nM | 110 nM | – | – | –
2 | C[C@@H]1[C@@H](C)CCC[C@@](O)(CC(=O)N2CCCCC2)[C@@H]2CC[C@H]2CN2C[C@@]3(CCCc4cc(Cl)ccc43)COc3ccc(cc32)C(=O)NS1(=O)=O [Example 100089, (1S,3′R,6′R,7′R,11′S,12′R)-6-chloro-7′-hydroxy-11′,12′-dimethyl-7′-(2-oxo-2-(1-piperidinyl)ethyl)-3,4-dihydro-2H,15′H-spiro[naphthalene-1,22′-[20]oxa[13]thia[1,14]diazatetracyclo [14.7.2.0~3,6~.0~19,24~]pentacosa[16,18,24]trien]-15′-one 13′,13′-dioxide] | – | – | 0.348 nM | 325 nM | –
3 | COCCN1CCN(C[C@]2(OC)/C=C/C[C@H](C)[C@@H](C)S(=O)(=O)NC(=O)c3ccc4c(c3)N(C[C@@H]3CC[C@H]32)C[C@@]2(CCCc3cc(Cl)ccc32)CO4)CC1(C)C [Example 334, (1S,3′R,6′R,7′S,8′E,11′S,12′R)-6-chloro-7′-methoxy-7′-((4-(2-methoxyethyl)-3,3-dimethyl-1-piperazinyl)methyl)-11′,12′-dimethyl-3,4-dihydro-2H,15′H-spiro[naphthalene-1,22′-[20]oxa[13]thia[1,14]diazatetracyclo [14.7.2.0~3,6~.0~19,24~]pentacosa[8,16,18,24]tetraen]-15′-one 13′,13′-dioxide] | 0.186 nM | 159 nM | – | – | –
4 | Cc1ncc([C@@]2(O)/C=C/C[C@H](C)[C@@H](C)S(=O)(=O)NC(=O)c3ccc4c(c3)N(C[C@@H]3CC[C@H]32)C[C@@]2(CCCc3cc(Cl)ccc32)CO4)n1C (single isomer, unassigned) [Example 100555] | – | – | 0.101 nM | – | 113 nM
5 | COC(=O)C[C@@]1(O)/C=C/C[C@H](C)[C@@H](C)S(=O)(=O)NC(=O)c2ccc3c(c2)N(C[C@@H]2CC[C@H]21)C[C@@]1(CCCc2cc(Cl)ccc21)CO3 [Example 100287, methyl ((1S,3′R,6′R,7′R,8′E,11′S,12′R)-6-chloro-7′-hydroxy-11′,12′-dimethyl-13′,13′-dioxido-15′-oxo-3,4-dihydro-2H-spiro[naphthalene-1,22′-[20]oxa[13]thia[1,14]diazatetracyclo [14.7.2.0~3,6~.0~19,24~]pentacosa[8,16,18,24]tetraen]-7′-yl)acetate] | – | – | 0.494 nM | – | 1870 nM
6 | CO[C@@]1(C#CCN2CCN3CCOC[C@@H]3C2)/C=C/C[C@H](C)[C@@H](C)S(=O)(=O)NC(=O)c2ccc3c(c2)N(C[C@@H]2CC[C@H]21)C[C@@]1(CCCc2cc(Cl)ccc21)CO3 [Example 100518, (1S,3′R,6′R,7′S,8′E,11′S,12′R)-6-chloro-7′-(3-((9aS)-hexahydropyrazino[2,1-c][1,4]oxazin-8(1H)-yl)-1-propyn-1-yl)-7′-methoxy-11′,12′-dimethyl-3,4-dihydro-2H,15′H-spiro[naphthalene-1,22′-[20]oxa[13]thia[1,14]diazatetracyclo [14.7.2.0~3,6~.0~19,24~]pentacosa[8,16,18,24]tetraen]-15′-one 13′,13′-dioxide] | – | – | 0.427 nM | – | 668 nM
7 | C[C@@H]1[C@@H](C)CCC[C@](CO)(OCCN2CCOCC2)[C@@H]2CC[C@H]2CN2C[C@@]3(CCCc4cc(Cl)ccc43)COc3ccc(cc32)C(=O)NS1(=O)=O [Example 100280, (1S,3′R,6′R,7′S,11′S,12′R)-6-chloro-7′-(hydroxymethyl)-11′,12′-dimethyl-7′-(2-(4-morpholinyl)ethoxy)-3,4-dihydro-2H,15′H-spiro[naphthalene-1,22′-[20]oxa[13]thia[1,14]diazatetracyclo [14.7.2.0~3,6~.0~19,24~]pentacosa[16,18,24]trien]-15′-one 13′,13′-dioxide] | – | – | 0.368 nM | – | 305 nM
8 | CC[C@]1(OC)/C=C/C[C@H](C)[C@@H](C)S(=O)(=O)NC(=O)c2ccc3c(c2)N(C[C@@H]2CC[C@H]21)C[C@@]1(CCCc2cc(Cl)ccc21)CO3 [Example 100234, (1S,3′R,6′R,7′S,8′E,11′S,12′R)-6-chloro-7′-ethyl-7′-methoxy-11′,12′-dimethyl-3,4-dihydro-2H,15′H-spiro[naphthalene-1,22′-[20]oxa[13]thia[1,14]diazatetracyclo [14.7.2.0~3,6~.0~19,24~]pentacosa[8,16,18,24]tetraen]-15′-one 13′,13′-dioxide] | – | – | 0.237 nM | – | 449 nM
9 | C[C@@H]1[C@@H](C)C/C=C/[C@@](O)(C#CCN(C)C)[C@@H]2CC[C@H]2CN2C[C@@]3(CCCc4cc(Cl)ccc43)COc3ccc(cc32)C(=O)NS1(=O)=O [Example 100294, (1S,3′R,6′R,7′S,8′E,11′S,12′R)-6-chloro-7′-(3-(dimethylamino)-1-propyn-1-yl)-7′-hydroxy-11′,12′-dimethyl-3,4-dihydro-2H,15′H-spiro[naphthalene-1,22′-[20]oxa[13]thia[1,14]diazatetracyclo [14.7.2.0~3,6~.0~19,24~]pentacosa[8,16,18,24]tetraen]-15′-one 13′,13′-dioxide] | – | – | 0.118 nM | 116 nM | –
10 | CO[C@]1(CN2CCN3CCOC[C@@H]3C2)/C=C/[C@H](C)[C@H](C)CS(=O)(=O)NC(=O)c2ccc3c(c2)N(C[C@@H]2CC[C@H]21)C[C@@]1(CCCc2cc(Cl)ccc21)CO3 [Example 157, (1S,3′R,6′R,7′R,8′E,10′S,11′S)-6-chloro-7′-((9aS)-hexahydropyrazino[2,1-c][1,4]oxazin-8(1H)-ylmethyl)-7′-methoxy-10′,11′-dimethyl-3,4-dihydro-2H,15′H-spiro[naphthalene-1,22′-[20]oxa[13]thia[1,14]diazatetracyclo [14.7.2.0~3,6~.0~19,24~]pentacosa[8,16,18,24]tetraen]-15′-one 13′,13′-dioxide] | 0.126 nM | 121 nM | – | – | –
11 | C[C@@H]1[C@@H](C)CCC[C@@](O)(CC(=O)N2CCOC2=O)[C@@H]2CC[C@H]2CN2C[C@@]3(CCCc4cc(Cl)ccc43)COc3ccc(cc32)C(=O)NS1(=O)=O [Example 100153, (1S,3′R,6′R,7′R,11′S,12′R)-6-chloro-7′-hydroxy-11′,12′-dimethyl-7′-(2-oxo-2-(2-oxo-1,3-oxazolidin-3-yl)ethyl)-3,4-dihydro-2H,15′H-spiro[naphthalene-1,22′-[20]oxa[13]thia[1,14]diazatetracyclo [14.7.2.0~3,6~.0~19,24~]pentacosa[16,18,24]trien]-15′-one 13′,13′-dioxide] | – | – | 0.738 nM | 4660 nM | –
12 | C[C@@H]1[C@@H](C)CCC[C@@](O)(CO)[C@@H]2CC[C@H]2CN2C[C@@]3(CCCc4cc(Cl)ccc43)COc3ccc(cc32)C(=O)NS1(=O)=O [Example 100053, (1S,3′R,6′R,7′S,11′S,12′R)-6-chloro-7′-hydroxy-7′-(hydroxymethyl)-11′,12′-dimethyl-3,4-dihydro-2H,15′H-spiro[naphthalene-1,22′-[20]oxa[13]thia[1,14]diazatetracyclo [14.7.2.0~3,6~.0~19,24~]pentacosa[16,18,24]trien]-15′-one 13′,13′-dioxide] | – | – | 0.294 nM | – | 609 nM
